In patent US20100136541A1, “IDENTIFICATION AND VERIFICATION OF METHYLATION MARKER SEQUENCES” (Siemens Healthcare Diagnostics Inc., priority 2003, published 2010):

System: GPX3 CpG sites
Test: Bisulfite sequencing of CpG sites, cell lines treated vs. untreated
Format: cell-based, human
Design: unit not given here
Settings: cell line pool
Experimental: Samples: Paired tumor and adjacent normal tissues from twelve colorectal cancer patients were collected under institutional review board (IRB) approval with patient consent. Tissues were flash frozen in LN2 and stored at −80° C. prior to DNA extraction. All tissues were blinded. Cell lines: A panel of five colorectal cancer cell lines was used. Cells were grown to ˜50% confluence in the appropriate culture medium prior to treatment with 5-aza-2′-deoxycytidine. Optimal concentrations and incubation times (Table 4) were determined by assaying for reduction of p16 promoter methylation using MSP. Cells were harvested, pelleted by centrifugation, and washed twice in Hanks buffered saline solution. Cell pellets were stored at −80° C. Control cells were maintained simultaneously without 5-aza-2′-deoxycytidine treatment. DNA extraction: DNA was purified from tissues and cell lines using the QIAGEN DNeasy® Tissue Kit. Approximately 25-35 mg of each tissue was pulverized under liquid nitrogen before extraction. Elution volume for tissues was 2004. A final volume of […] of cell line DNA was extracted from 15 to 254 of each packed cell pellet (between 10^6-10^7 cells). Purified DNA was stored at −20° C. Bisulfite modification: Modification was performed according to the Frommer method (See Frommer M, et al., PNAS, 89: 1827-1831 (1992).) One μg genomic DNA was diluted into 50 μl with distilled H2O, 5.5 μl of 2M NaOH was added, and the mixture incubated at 37° C. for 10 minutes (to create single stranded DNA). Thirty μl of freshly prepared 10 mM hydroquinone (Sigma) was added to each tube. Five hundred twenty μl of freshly prepared 3M sodium bisulfite (Sigma S-8890), pH 5.0 was then added. Reagents were thoroughly mixed and then covered with mineral oil and incubated at 50° C. for 16 hours. After removing the oil, 1 ml of Wizard DNA Cleanup Resin (Promega A7280) was added to each tube prior to applying the mixture to miniprep column in the DNA Wizard Cleanup kit. The column was washed with 2 ml of 80% isopropanol, and eluted with 50 μl of heated water (60-70° C.). 5.5 μl of 3 M NaOH to was added to each tube, and incubated at room temperature for 5 minutes. Then 1 μl glycogen was added as carrier, 33 μl of 10 M NH4Ac, and 3 volumes of ethanol for DNA precipitation. The pellet was spun down and washed with 70% ethanol, dried and resuspended in 20 μl water. In some instances, the EZ DNA Methylation Kit (Zymo Research) which uses a simplified version of the Frommer method was used. In these cases, 1 μg of genomic DNA was denatured in 0.3M NaOH for 15 minutes at 37° C. followed by incubation at 50° C. for 16 hours in 0.5 mM hydroquinone and a saturated solution of sodium bisulfite at pH 5. Modified DNA was bound to the Zymo column membrane, then desulfonated with 0.3M NaOH for 15 minutes at room temperature. DNA was washed and resuspended with 50 μL 10 mM Tris-HCl-0.1 mM EDTA, pH 7.5 and stored at −20° C. The bisulfite reaction results in conversion of an unmethylated cytosine to uracil. Methylated cytosine remains unchanged after the bisulfite reaction. The resulting bisulfite modified DNA is single stranded. PCR amplification for sequencing: Primers were designed to amplify both methylated and unmethylated fragments of DNA (Table 5). Five μL of modified DNA ( 1/10 of modification reaction) was amplified first in a 254, reaction volume containing 10 mM Tris-HCl pH8.3, 50 mM KCl, 1.5 mM to 2 mM MgCl2, (Applied Biosystems), 0.25 mM each dNTP, 0.5 unit AmpliTaq (Applied Biosystems), and sequencing primers (each at 200 nM). Cycling conditions were 10 minutes at 95° C., 40 cycles of 30 seconds at 95° C., 30 seconds at 54-62° C., 30 seconds at 72° C., subsequently followed by extension for 5 minutes at 72° C.
Reaction products were purified either by the shrimp-alkaline phosphatase-Exol standard method or on the Qiagen Qiaquick PCR clean-up column and eluted in 30 μL 10 mM Tris-HCl, pH8.5. […]

Nc1ncn([C@H]2C[C@H](O)[C@@H](CO)O2)c(=O)n1 [5-aza-2′-deoxycytidine]
Sequencing results for GPX3, CpG site #25: 70 | Sequencing results for GPX3, CpG site #27: 100 | Sequencing results for GPX3, CpG site #31: 67 | Sequencing results for GPX3, CpG site #49: 70 | Sequencing results for GPX3, CpG site #56: 98 | Sequencing results for GPX3, CpG site #75: 72 | Sequencing results for GPX3, CpG site #84: 77 | Sequencing results for GPX3, CpG site #86: 74 | Sequencing results for GPX3, CpG site #101: 84 | Sequencing results for GPX3, CpG site #126: 75 | Sequencing results for GPX3, CpG site #129: 80 | Sequencing results for GPX3, CpG site #142: 97 | Sequencing results for GPX3, CpG site #146: 80 | Sequencing results for GPX3, CpG site #167: 89
